“Also recorded” adds a separate entry of the source. d = 2'-deoxy (DNA); r = 2'-OH (RNA)
Key:
NLRP3 and IL18 mRNAs = test: NLRP3 and IL18 mRNA in human RPE cells (real-time RT-PCR); assay type: cell-based
Source text: Transcript abundance was quantified by real-time RT-PCR using an Applied Biosystems 7900 HT Fast Real-Time PCR system by the 2^−ΔΔCt method.
(§1) Total RNA was extracted from tissues or cells using Trizol reagent (Invitrogen) according to manufacturer's recommendations, DNase treated and reverse transcribed (QuantiTect, Qiagen). The RT products (cDNA) were amplified by real-time quantitative PCR (Applied Biosystems 7900 HT Fast Real-Time PCR system) with Power SYBR green Master Mix. Oligonucleotide primers specific for human IL1B (forward 5′-[…]-3′ and reverse 5′-[…]-3′), human IL18 (forward 5′-[…]-3′ and reverse 5′-[…]-3′), human NLRP3 (forward 5′-[…]-3′ and reverse 5′-[…]-3′), human PYCARD (forward 5′-[…]-3′ and reverse 5′-[…]-3′), human VDAC1 (forward 5′-[…]-3′ and reverse 5′-[…]-3′), human VDAC2 (forward 5′-[…]-3′ and reverse 5′-[…]-3′), human VDAC3 (forward 5′-[…]-3′ and reverse 5′-[…]-3′), human 18S rRNA (forward 5′-[…]-3′ and reverse 5′-[…]-3′), mouse Myd88 (forward 5′-[…]-3′ and reverse 5′-[…]-3′), mouse Nlrp3 (forward 5′-[…]-3′ and reverse 5′-[…]-3′), mouse Il18 (forward 5′-[…]-3′ and reverse 5′-[…]-3′), and mouse 18S rRNA (forward 5′-[…]-3′ and reverse 5′-[…]-3′) were used. The QPCR cycling conditions were 50° C. for 2 min, 95° C. for 10 min followed by 40 cycles of a two-step amplification program (95° C. for 15 s and 58° C. for 1 min). At the end of the amplification, melting curve analysis was applied using the dissociation protocol from the Sequence Detection system to exclude contamination with unspecific PCR products. […] For negative controls, no RT products were used as templates in the QPCR and verified by the absence of gel-detected bands. Relative expressions of target genes were determined by the 2^−ΔΔCt method.

VDAC2 = VDAC2 mRNA knockdown in human RPE cells; assay type: cell-based; settings: compared to control (Luc) siRNA
Source text: as §1, with “used.” for “used. The QPCR cycling conditions were 50° C. for 2 min, 95° C. for 10 min followed by 40 cycles of a two-step amplification program (95° C. for 15 s and 58° C. for 1 min). At the end of the amplification, melting curve analysis was applied using the dissociation protocol from the Sequence Detection system to exclude contamination with unspecific PCR products.”

mitochondrial ROS = test: Mitochondrial ROS in human RPE cells (MitoSOX Red); assay type: cell-based
Description: Cellular ROS production was assessed using the ROS-specific probe 2′7′-dichlorodihydrofluorescin diacetate (H2DCFDA, BioChemica, Fluka). Mitochondrial ROS production was assessed using MitoSOX™ Red (Invitrogen). Sub-confluent human RPE cells were transfected with pNull or pAlu. After 24 h cells were loaded for 10 min at 37° C. with 10 μM H2DCFDA or MitoSOX™ Red (Invitrogen) mitochondrial superoxide indicator for live-cell imaging and washed twice with PBS. For H2DCFDA, fluorescence was recorded in 96-well plate using with a Synergy 4 reader (Biotek) using a FITC filter (excitation 485 nm, emission 538 nm). To visualize respiring mitochondria for colocalization with the mitochondrial ROS signal, after PBS wash cells were incubated with MitoTracker Deep Red™ (Invitrogen) for 30 min at 37° C. and then washed twice with PBS. The fluorescent signals were detected using Leica SP-5 or Zeiss Axio Observer Z1 microscopes. Phagosomal ROS production was assessed using the Fc-OXYBURST Green™ assay (Invitrogen). Sub-confluent human RPE cells were transfected with pNull or pAlu, or treated with PMA (0.5 μg/ml; Sigma-Aldrich). […] The total fluorescence from the cells was measured immediately after adding Fc-OXYBURST Green™ with a Synergy 4 reader (Biotek) using FITC filter (excitation 485 nm, emission 538 nm).

VDAC1 = VDAC1 mRNA knockdown in human RPE cells; assay type: cell-based; settings: compared to control (Luc) siRNA
Source text: as §1, with “used.” for “used. The QPCR cycling conditions were 50° C. for 2 min, 95° C. for 10 min followed by 40 cycles of a two-step amplification program (95° C. for 15 s and 58° C. for 1 min). At the end of the amplification, melting curve analysis was applied using the dissociation protocol from the Sequence Detection system to exclude contamination with unspecific PCR products.”

PYCARD = PYCARD knockdown in human RPE cells; assay type: cell-based; settings: compared to control siRNAs
Description: (§2) Tissues or cells were homogenized in lysis buffer (10 mM Tris base, pH 7.4, 150 mM NaCl, 1 mM EDTA, 1 mM EGTA, 1% Triton X-100, 0.5% NP-40, protease and phosphatase inhibitor cocktail (Roche)). Protein concentrations were determined using a Bradford assay kit (Bio-Rad) with bovine serum albumin as a standard. Proteins (40-100 μg) were run on NuPAGE Bis-Tris gels (Invitrogen) and transferred to Immun-Blot PVDF membranes (Bio-Rad). Cells were scraped in hot Laemmli buffer (62.5 mM Tris base, pH 6.8, 2% SDS, 5% 2-Mercaptoethanol, 10% Glycerol, 0.01% Bromophenol Blue). Samples were boiled and run on 4-20% NuPAGE Tris-Glycine gels (Invitrogen). The transferred membranes were blocked for 1 h at RT and incubated with antibodies against human Caspase-1 (1:500; Invitrogen), mouse Caspase 1 (1:500; MBL), NLRP3 (1:1000; Enzo Life Sciences), PYCARD (1:1000, RayBiotech), phospho-IRAK1 (S376) (1:500, Thermo Scientific), phospho-IRAK4 (T345) (1:500, AbboMax), DICER1 (1:2,000; Bethyl), MyD88 (1:1,000; Cell Signaling), and mouse IL-18 (1:200; MBL) at 4° C. overnight. Protein loading was assessed by immunoblotting using an anti-Vinculin antibody (1:1,000; Sigma-Aldrich). The secondary antibodies were used (1:5,000) for 1 h at RT. The signal was visualized by enhanced chemiluminescence (ECL plus) and captured by VisionWorksLS Image Acquisition and Analysis software (Version 6.7.2, UVP, LLC).

human RPE cells = human RPE cells transfected with pAlu
Description: All cell cultures were maintained at 37° C. and 5% CO2. Primary mouse RPE cells were isolated as previously described (Yang et al., 2009) and grown in Dulbecco Modified Eagle Medium (DMEM) supplemented with 20% FBS and standard antibiotics concentrations. Primary human RPE cells were isolated as previously described (Yang et al., 2008) and maintained in DMEM supplemented with 10% FBS and antibiotics. HeLa cells were maintained in DMEM supplemented with 20% FBS and standard antibiotics concentrations. THP-1 cells were cultured in RPMI 1640 medium supplemented with 10% FBS and antibiotics.
MTS assays were performed using the CellTiter 96 AQueous One Solution Cell Proliferation Assay (Promega) according to the manufacturer's instructions. For examining the cytoprotective effect of glycine in Alu RNA induced cell death, human RPE cells were transfected with pNull/pAlu. At 6 h post-transfection the cells were incubated with complete media containing glycine (5 mM) or vehicle, and cell viability was assessed after 24 h. Similarly, human RPE cells primed with LPS (5 μg/ml for 6 h) were treated with ATP (25 μM) in the presence of glycine containing media (5 mM). 30 min post ATP cell viability was assessed as described above.
MTS assays were performed using the CellTiter 96 AQueous One Solution Cell Proliferation Assay (Promega) according to the manufacturer's instructions.

DICER1 = DICER1 abundance after antisense treatment of human RPE cells; assay type: cell-based
Description: as §2

IRAK1/4 phosphorylation = IRAK1/4 phosphorylation in human RPE cells (Western blot); assay type: cell-based; settings: human RPE cells treated with DICER1 antisense
Description: (§3) Protein abundance was assessed by Western blot analysis using antibodies against Caspase-1 (1:500; Invitrogen), pIRAK1 (1:500; Thermo Scientific), pIRAK4 (1:500, Abbomax), PYCARD (1:200, Santa Cruz Biotechnology), NLRP3 (1:500, Enzo Life Sciences) and Vinculin (1:1,000; Sigma-Aldrich). Caspase-1 activity was visualized using Caspalux1 E1D2 (Oncolmmunin) according to manufacturer's instructions.
as §2

Caspase-1 = molecular target: T1, Caspase-1 (Homo sapiens, UniProt P29466); test: Caspase-1 activation in human RPE cells (Western blot p20, Caspalux substrate cleavage); assay type: cell-based; settings: compared to control AS
T1 construct: Primary human RPE cells were isolated as previously described; endogenous in cells; host or cells: primary human RPE cells
T1 sequence (P29466 120-297 limits assumed): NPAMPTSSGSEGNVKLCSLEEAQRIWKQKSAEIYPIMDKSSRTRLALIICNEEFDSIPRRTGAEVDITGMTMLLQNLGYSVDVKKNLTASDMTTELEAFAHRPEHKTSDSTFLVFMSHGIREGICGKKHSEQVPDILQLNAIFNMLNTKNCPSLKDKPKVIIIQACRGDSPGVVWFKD
T1 sequence (P29466 317-404 limits assumed): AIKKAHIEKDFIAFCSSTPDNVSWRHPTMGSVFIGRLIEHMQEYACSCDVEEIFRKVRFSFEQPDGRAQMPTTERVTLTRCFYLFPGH
Description: as §3, §2
Caspase-1 activity. Caspase-1 activity was visualized by incubating cells with Caspalux1E1D2 reagent (Oncolmmunin) according to the manufacturer's instructions. Caspalux1E1D2 signal was quantified reading the fluorescence (excitation 552 nm, emission 580 nm) using a Synergy 4 reader (Biotek). Quantification of fluorescence from images was performed by converting images into grayscale in Adobe Photoshop CSS, and measuring the integrated density of black and white images using ImageJ software (NIH) (Bogdanovich et al., 2008).

VDAC3 = VDAC3 mRNA knockdown in human RPE cells; assay type: cell-based; settings: compared to control (Luc) siRNA
Source text: as §1, with “used.” for “used. The QPCR cycling conditions were 50° C. for 2 min, 95° C. for 10 min followed by 40 cycles of a two-step amplification program (95° C. for 15 s and 58° C. for 1 min). At the end of the amplification, melting curve analysis was applied using the dissociation protocol from the Sequence Detection system to exclude contamination with unspecific PCR products.”

NLRP3 = NLRP3 knockdown in HEK293 cells transfected with an NLRP3 expression vector; assay type: cell-based; settings: compared to control siRNAs
Description: as §2

RPE = test: Alu RNA-induced RPE degeneration in wild-type mice, inhibitors given intravitreously; assay type: in vivo; settings: subretinal Alu RNA 1 μg; peptide 2 μg intravitreous

What does the source list for “5′-CCCUGGAGUUGGAGGCUdTdT-3′ [VDAC2 siRNA]”?
pAlu-induced NLRP3 and IL18 mRNA upregulation (NLRP3 and IL18 mRNAs): prevent; also recorded: impaired; abundance of VDAC2 mRNA (VDAC2): reduced; pAlu-induced mitochondrial ROS generation (mitochondrial ROS): prevent; also recorded: impaired

How did the “pAlu-induced NLRP3 and IL18 mRNA upregulation” value (NLRP3 and IL18 mRNAs) turn out when “5′-CGGAAUAGCAGCCAAGUdTdT-3′ [VDAC1 siRNA]” was run?
Its value is “prevent; also recorded: impaired”.

And the “abundance of VDAC1 mRNA” value (VDAC1)?
Its value is “reduced”.

What about the “pAlu-induced mitochondrial ROS generation” value (mitochondrial ROS) of the same substance?
The value was “prevent; also recorded: impaired”.

Which “abundance of PYCARD” value (PYCARD) does the source give for “5′-GAAGCUCUUCAGUUUCAdTdT-3′ (GAAGCUCUUCAGUUUCATT; siRNA; sugars from the 5' end r17 d2, backbone not given here) [PYCARD siRNA]” here?
The value was “reduced”.

What about the “pAlu-induced human RPE cell death / loss of cell viability” value (human RPE cells) of the same substance?
The value was “rescued”.

With 5′-GCUGACCTTTTTGCTUCUCA-3′ [DICER1 AS] as the substance, how does the DICER1 abundance (DICER1) read?
The DICER1 abundance was “reduces DICER1”.

What about the “IRAK1 and IRAK4 phosphorylation” value (IRAK1/4 phosphorylation) of the same substance?
Its value is “increases IRAK1 and IRAK4 phosphorylation”.

What about the “cleavage activity of Caspase-1 (Caspalux)” value (Caspase-1) of the same substance?
Its value is “increases cleavage activity of Caspase-1”.

Which “abundance of VDAC3 mRNA” value (VDAC3) does the source give for “5′-GCUUUAAUCGAUGGGAAdTdT-3′ [VDAC3 siRNA]” here?
The value was “reduced”.

What does the source list for “5′-GUUUGACUAUCUGUUCUdTdT-3′ (GUUUGACUAUCUGUUCUTT; siRNA; sugars from the 5' end r17 d2, backbone not given here) [NLRP3 siRNA]”?
abundance of NLRP3 (NLRP3): reduced; pAlu-induced human RPE cell death / loss of cell viability (human RPE cells): rescued

DRQIKIWFQNRRMKWKKRDVLPGTCVWSIASE was tested. Which “Alu RNA-induced RPE degeneration” value (RPE) did it give?
Its value is “blocked”.
